Laboratory results reported in PMC11324436 (2024).

Tests used:
Assay in all cases: NMM fluorescence enhancement
[1] = test system: 55PYO2A (DNA, aptamer) CTAGGAATCAGGAGCGAATGTTAGAGTATTTGGATAGTATGTTTATTGTATCGGC; details: 10 mM KCl, 2 mM MgSO4 (added), 0.37 mM CaCl2; SSMB1 pH 5.9, 23 °C; 2 µM aptamer, 2 µM NMM; no enhancement over control
[2] = test system: Oligo 5637 (DNA, single strand) GCCTGTTGTGAGCCTCCTGTCGAAGTATGCGATAGGAGCGAATGATATATATCAAGTTACCACACGGATGTACTTGCTTGAGCGTTTATTCTTGTCTCCC; details: 10 mM KCl, 2 mM MgSO4 (added), 0.37 mM CaCl2; SSMB1 pH 5.9, 23 °C; 2 µM aptamer, 2 µM NMM; no enhancement over control
[3] = test system: 55PYO4A (DNA, aptamer) GATCGGAATGGGAGCGAATGAGGAGGGAGCGCGGACATGGTGCAGCAGCCCGACG; details: 10 mM KCl, 2 mM MgSO4 (added), 0.37 mM CaCl2; SSMB1 pH 5.9, 23 °C; 2 µM aptamer, 2 µM NMM
[4] = test system: 15THR1A (DNA, aptamer) GGTTGGTGTGGTTGG; details: 10 mM KCl, 2 mM MgSO4 (added), 0.37 mM CaCl2; SSMB1 pH 5.9, 23 °C; 2 µM aptamer, 2 µM NMM

binding [1]: no
binding [2]: no
binding [3]: yes
binding [4]: yes
Structure (SMILES): CCc1c(C)c2cc3nc(cc4nc(cc5c(CC)c(C)c(cc1[nH]2)n5C)C(C)=C4CCC(=O)O)C(CCC(=O)O)=C3C
